Experimental data from patent US20080312304A1, “Topical compositions containing metronidazole” (priority 2007, published 2008).
Each block holds one molecule with its values, some of them ahead of it.

What was measured:
[1] = physical stability test of aqueous metronidazole compositions (crystal formation or precipitation); type: physicochemical; conditions: for concentration of the solubility enhancing agent required to obtain a stable aqueous solution of 1.0% metronidazole: agent used as the only solubility enhancing agent, stability test of Example 1; for N-2-hydroxyethyl urea concentration functionally equivalent to 1% of the agent in inducing the solubility enhancing effect: worked out from Examples 2, 3 and 4; for Results from stability test: 1.0% metronidazole, 24 hours room temperature, then 7 days at about 4 °C
Description: The solubility enhancing effect of the combination of niacinamide, urea, and hydroxyalkyl urea in increasing the solubility of metronidazole in the aqueous compositions is evaluated by physical stability of the prepared compositions.
Therefore, the compositions in accordance with the present invention are subject to a physical stability test. The protocol for the stability test is as follows: metronidazole and the solubility enhancing agents are combined with water either at room temperature or elevated temperature while stirring until dissolved. The solutions are permitted to cool to room temperature. Customary auxiliaries and additives may be added to the aqueous solutions containing solubilized metronidazole and solubility enhancing agents. The solutions may be gelled by using the suitable gelling agents. The compositions both in gel or solution form are then packaged in clear glass vials and sealed. The vials are kept at room temperature for 24 hours and monitored for crystal formation or precipitation. After 24 hours, the vials are placed in a refrigerator maintained at a temperature of about 4 ° C. for 7 days. After 7 days, the vials are removed from the refrigerator. Evidence of crystal formation or precipitation in the compositions is examined.

[2] = at 25 °C; cited from earlier work

concentration of the solubility enhancing agent required to obtain a stable aqueous solution of 1.0% metronidazole [1]: about 10% | N-2-hydroxyethyl urea concentration functionally equivalent to 1% of the agent in inducing the solubility enhancing effect [1]: about 1.6%
Structure (SMILES): NC(N)=O [urea]

concentration of the solubility enhancing agent required to obtain a stable aqueous solution of 1.0% metronidazole [1]: about 16%
Structure (SMILES): NC(=O)NCCO [N-2-hydroxyethyl urea]

concentration of the solubility enhancing agent required to obtain a stable aqueous solution of 1.0% metronidazole [1]: about 5% | N-2-hydroxyethyl urea concentration functionally equivalent to 1% of the agent in inducing the solubility enhancing effect [1]: about 3.2%
Structure (SMILES): NC(=O)c1cccnc1 [niacinamide]
water solubility limit [2]: about 50 % by weight

Results from stability test ([1]; 2% niacinamide in water): Crystals formed | Results from stability test ([1]; 3% niacinamide in water): Crystals formed | Results from stability test ([1]; 4% niacinamide in water): Crystals formed | Results from stability test ([1]; 7% urea in water): Crystals formed | Results from stability test ([1]; 8% urea in water): Crystals formed | Results from stability test ([1]; 9% urea in water): Crystals formed | Results from stability test ([1]; 13% N-2-hydroxyethyl urea in water): Crystals formed | Results from stability test ([1]; 14% N-2-hydroxyethyl urea in water): Crystals formed | Results from stability test ([1]; 15% N-2-hydroxyethyl urea in water): Crystals formed | result from the stability test, in words ([1]; composition containing 2.0% N-2-hydroxyethyl urea, 2.0% niacinamide, 2.0% urea and 1.0% metronidazole): stable
Structure (SMILES): Cc1ncc([N+](=O)[O-])n1CCO [Metronidazole, 1-(2-hydroxyethyl)-2-methyl-5-nitroimidazole]
Results from stability test ([1]; 2.0% urea, 2.0% N-2-hydroxyethyl urea, 2.0% niacinamide in water): Clear (‘clear’ means no crystals or precipitates) | Results from stability test ([1]; 3.0% urea, 3.0% N-2-hydroxyethyl urea, 1.5% niacinamide in water): Clear (‘clear’ means no crystals or precipitates) | Results from stability test ([1]; 5% niacinamide in water): Clear (‘clear’ means no crystals or precipitates) | Results from stability test ([1]; 10% urea in water): Clear (‘clear’ means no crystals or precipitates) | Results from stability test ([1]; 16% N-2-hydroxyethyl urea in water): Clear (‘clear’ means no crystals or precipitates)
